According to ChEMBL document CHEMBL3885881, “DrugMatrix”:

Species on record: Rattus norvegicus
Experiment: DrugMatrix - Regimen: Daily Repeat
Assay type: toxicity, organism-based, Sprague-Dawley
Parameters: regimen Daily Repeat, gender Male, age 6-8 weeks
Conditions: in vivo, po, route oral GAVAGE, vehicle .5 % CMC; for ABSOLUTE BASOPHIL / ABSOLUTE EOSINOPHIL / ABSOLUTE LYMPHOCYTE / ABSOLUTE MONOCYTE / ABSOLUTE SEGMENTED NEUTROPHIL / BASOPHIL / EOSINOPHIL / HEMATOCRIT / HEMOGLOBIN / LEUKOCYTE COUNT / LYMPHOCYTE / MEAN CORPUSCULAR HEMOGLOBIN / MEAN CORPUSCULAR HEMOGLOBIN CONCENTRATION / MEAN CORPUSCULAR VOLUME / MONOCYTE / NEUTROPHIL / NUCLEATED RED BLOOD CELLS / PLATELET COUNT: tissue Blood; for ALANINE AMINOTRANSFERASE / ALBUMIN / ALKALINE PHOSPHATASE / ASPARTATE AMINOTRANSFERASE / BLOOD UREA NITROGEN / CARBON DIOXIDE / CHLORIDE / CHOLESTEROL / CREATINE PHOSPHOKINASE / CREATININE / GLUCOSE / LACTATE DEHYDROGENASE / LIPASE / PHOSPHORUS / POTASSIUM / SODIUM / TOTAL BILIRUBIN / TOTAL PROTEIN / URIC ACID: tissue Plasma
[1] = 150 mg/kg, 72 h, dose level Low, time 3 day
[2] = 150 mg/kg, 120 h, dose level Low, time 5 day
[3] = 1500 mg/kg, 72 h, dose level High, time 3 day
[4] = 1500 mg/kg, 120 h, dose level High, time 5 day

`CC(C)(C)NCC(O)COc1cccc2c1CC(O)C(O)C2` (stereo not drawn) [NADOLOL] was tested, and the “ABSOLUTE BASOPHIL” value [1] was 0 CELLS/uL, the “ABSOLUTE EOSINOPHIL” value [1] was 43.33 CELLS/uL and the “ABSOLUTE LYMPHOCYTE” value [1] was 11948.67 CELLS/uL. For the same molecule, the “ABSOLUTE MONOCYTE” value [1] was 0 CELLS/uL, the “ABSOLUTE SEGMENTED NEUTROPHIL” value [1] was 1241.33 CELLS/uL and the BASOPHIL [1] was 0%. For the same molecule, the EOSINOPHIL [1] was 0.33%, the HEMATOCRIT [1] was 34.8% and the HEMOGLOBIN [1] was 13.13 G/DL. The “LEUKOCYTE COUNT” value [1] was 13.23 x10E3/uL, the LYMPHOCYTE [1] was 90.33% and the “MEAN CORPUSCULAR HEMOGLOBIN” value [1] was 24.5 pg. For the same molecule, the “MEAN CORPUSCULAR HEMOGLOBIN CONCENTRATION” value [1] was 37.73 G/DL, the “MEAN CORPUSCULAR VOLUME” value [1] was 64.87 fL and the MONOCYTE [1] was 0%. The NEUTROPHIL [1] was 9.33%, the “NUCLEATED RED BLOOD CELLS” value [1] was 0 /100WBC and the “PLATELET COUNT” value [1] was 1238.33 x10E3/uL. The “ALANINE AMINOTRANSFERASE” value [1] was 44 u/L, the ALBUMIN [1] was 4.17 G/DL and the “ALKALINE PHOSPHATASE” value [1] was 391.33 u/L. For the same molecule, the “ASPARTATE AMINOTRANSFERASE” value [1] was 75.33 u/L, the “BLOOD UREA NITROGEN” value [1] was 17 mg/dL and the “CARBON DIOXIDE” value [1] was 24.67 mmol/L. For the same molecule, the CHLORIDE [1] was 104 MEQ/L, the CHOLESTEROL [1] was 82.33 mg/dL and the “CREATINE PHOSPHOKINASE” value [1] was 224 u/L. For the same molecule, the CREATININE [1] was 0.22 mg/dL, the GLUCOSE [1] was 176.33 mg/dL and the “LACTATE DEHYDROGENASE” value [1] was 97 u/L. It also gave an LIPASE [1] of 8 u/L, a PHOSPHORUS [1] of 14.9 mg/dL and a POTASSIUM [1] of 6.65 MEQ/L. The SODIUM [1] was 146.1 MEQ/L, the “TOTAL BILIRUBIN” value [1] was 0.23 mg/dL and the “TOTAL PROTEIN” value [1] was 6.1 G/DL. For the same molecule, the “URIC ACID” value [1] was 2 mg/dL, the “ABSOLUTE BASOPHIL” value [2] was 0 CELLS/uL and the “ABSOLUTE EOSINOPHIL” value [2] was 50.33 CELLS/uL. The “ABSOLUTE LYMPHOCYTE” value [2] was 8337.33 CELLS/uL, the “ABSOLUTE MONOCYTE” value [2] was 0 CELLS/uL and the “ABSOLUTE SEGMENTED NEUTROPHIL” value [2] was 679 CELLS/uL. It also gave a BASOPHIL [2] of 0%, an EOSINOPHIL [2] of 0.67% and an HEMATOCRIT [2] of 35.83%. The HEMOGLOBIN [2] was 13.37 G/DL, the “LEUKOCYTE COUNT” value [2] was 9.07 x10E3/uL and the LYMPHOCYTE [2] was 91.67%. The “MEAN CORPUSCULAR HEMOGLOBIN” value [2] was 24.27 pg, the “MEAN CORPUSCULAR HEMOGLOBIN CONCENTRATION” value [2] was 37.37 G/DL and the “MEAN CORPUSCULAR VOLUME” value [2] was 64.93 fL. For the same molecule, the MONOCYTE [2] was 0%, the NEUTROPHIL [2] was 7.67% and the “NUCLEATED RED BLOOD CELLS” value [2] was 0 /100WBC. For the same molecule, the “PLATELET COUNT” value [2] was 1254.33 x10E3/uL, the “ALANINE AMINOTRANSFERASE” value [2] was 46.33 u/L and the ALBUMIN [2] was 4.17 G/DL. The “ALKALINE PHOSPHATASE” value [2] was 380.67 u/L, the “ASPARTATE AMINOTRANSFERASE” value [2] was 77.67 u/L and the “BLOOD UREA NITROGEN” value [2] was 14.67 mg/dL. For the same molecule, the “CARBON DIOXIDE” value [2] was 29.67 mmol/L, the CHLORIDE [2] was 101 MEQ/L and the CHOLESTEROL [2] was 84.67 mg/dL. The “CREATINE PHOSPHOKINASE” value [2] was 179 u/L, the CREATININE [2] was 0.19 mg/dL and the GLUCOSE [2] was 140.33 mg/dL. The “LACTATE DEHYDROGENASE” value [2] was 101 u/L, the LIPASE [2] was 8.67 u/L and the PHOSPHORUS [2] was 10.8 mg/dL. For the same molecule, the POTASSIUM [2] was 6.14 MEQ/L, the SODIUM [2] was 147.83 MEQ/L and the “TOTAL BILIRUBIN” value [2] was 0.27 mg/dL. The “TOTAL PROTEIN” value [2] was 5.93 G/DL, the “URIC ACID” value [2] was 0.8 mg/dL and the “ABSOLUTE BASOPHIL” value [3] was 0 CELLS/uL. The “ABSOLUTE EOSINOPHIL” value [3] was 179 CELLS/uL, the “ABSOLUTE LYMPHOCYTE” value [3] was 10744.33 CELLS/uL and the “ABSOLUTE MONOCYTE” value [3] was 0 CELLS/uL. The “ABSOLUTE SEGMENTED NEUTROPHIL” value [3] was 1443.33 CELLS/uL, the BASOPHIL [3] was 0% and the EOSINOPHIL [3] was 1.33%. For the same molecule, the HEMATOCRIT [3] was 32.37%, the HEMOGLOBIN [3] was 12.3 G/DL and the “LEUKOCYTE COUNT” value [3] was 12.37 x10E3/uL. The LYMPHOCYTE [3] was 87.67%, the “MEAN CORPUSCULAR HEMOGLOBIN” value [3] was 24.6 pg and the “MEAN CORPUSCULAR HEMOGLOBIN CONCENTRATION” value [3] was 38 G/DL. For the same molecule, the “MEAN CORPUSCULAR VOLUME” value [3] was 64.77 fL, the MONOCYTE [3] was 0% and the NEUTROPHIL [3] was 11%. The “NUCLEATED RED BLOOD CELLS” value [3] was 0 /100WBC, the “PLATELET COUNT” value [3] was 1241.33 x10E3/uL and the “ALANINE AMINOTRANSFERASE” value [3] was 51.33 u/L. For the same molecule, the ALBUMIN [3] was 3.9 G/DL, the “ALKALINE PHOSPHATASE” value [3] was 378.33 u/L and the “ASPARTATE AMINOTRANSFERASE” value [3] was 79.33 u/L. The “BLOOD UREA NITROGEN” value [3] was 16 mg/dL, the “CARBON DIOXIDE” value [3] was 24.67 mmol/L and the CHLORIDE [3] was 109.33 MEQ/L. The CHOLESTEROL [3] was 85 mg/dL, the “CREATINE PHOSPHOKINASE” value [3] was 126 u/L and the CREATININE [3] was 0.15 mg/dL. For the same molecule, the GLUCOSE [3] was 170 mg/dL, the “LACTATE DEHYDROGENASE” value [3] was 86.33 u/L and the LIPASE [3] was 8 u/L. It also gave a PHOSPHORUS [3] of 14.57 mg/dL, a POTASSIUM [3] of 7.08 MEQ/L and an SODIUM [3] of 148.37 MEQ/L. The “TOTAL BILIRUBIN” value [3] was 0.17 mg/dL, the “TOTAL PROTEIN” value [3] was 5.63 G/DL and the “URIC ACID” value [3] was 2.2 mg/dL. For the same molecule, the “ABSOLUTE BASOPHIL” value [4] was 0 CELLS/uL, the “ABSOLUTE EOSINOPHIL” value [4] was 191.67 CELLS/uL and the “ABSOLUTE LYMPHOCYTE” value [4] was 13307.33 CELLS/uL. For the same molecule, the “ABSOLUTE MONOCYTE” value [4] was 0 CELLS/uL, the “ABSOLUTE SEGMENTED NEUTROPHIL” value [4] was 867.67 CELLS/uL and the BASOPHIL [4] was 0%. The EOSINOPHIL [4] was 1.33%, the HEMATOCRIT [4] was 33.3% and the HEMOGLOBIN [4] was 12.53 G/DL. The “LEUKOCYTE COUNT” value [4] was 14.37 x10E3/uL, the LYMPHOCYTE [4] was 92.67% and the “MEAN CORPUSCULAR HEMOGLOBIN” value [4] was 23.37 pg. For the same molecule, the “MEAN CORPUSCULAR HEMOGLOBIN CONCENTRATION” value [4] was 37.67 G/DL, the “MEAN CORPUSCULAR VOLUME” value [4] was 62.2 fL and the MONOCYTE [4] was 0%. The NEUTROPHIL [4] was 6%, the “NUCLEATED RED BLOOD CELLS” value [4] was 0 /100WBC and the “PLATELET COUNT” value [4] was 1258.33 x10E3/uL. For the same molecule, the “ALANINE AMINOTRANSFERASE” value [4] was 44.67 u/L, the ALBUMIN [4] was 3.9 G/DL and the “ALKALINE PHOSPHATASE” value [4] was 343 u/L. For the same molecule, the “ASPARTATE AMINOTRANSFERASE” value [4] was 80 u/L, the “BLOOD UREA NITROGEN” value [4] was 16.33 mg/dL and the “CARBON DIOXIDE” value [4] was 25.33 mmol/L. For the same molecule, the CHLORIDE [4] was 103.67 MEQ/L, the CHOLESTEROL [4] was 74 mg/dL and the “CREATINE PHOSPHOKINASE” value [4] was 262 u/L. For the same molecule, the CREATININE [4] was 0.21 mg/dL, the GLUCOSE [4] was 152.33 mg/dL and the “LACTATE DEHYDROGENASE” value [4] was 268.33 u/L. It also gave an LIPASE [4] of 8 u/L, a PHOSPHORUS [4] of 13 mg/dL and a POTASSIUM [4] of 6.63 MEQ/L. For the same molecule, the SODIUM [4] was 146.2 MEQ/L, the “TOTAL BILIRUBIN” value [4] was 0.13 mg/dL and the “TOTAL PROTEIN” value [4] was 5.7 G/DL. The “URIC ACID” value [4] was 1.47 mg/dL.
